# Measured values from US20020035061A1, “COMPOSITIONS AND METHODS FOR TREATING INFECTIONS USING CATIONIC PEPTIDES ALONE OR IN COMBINATION WITH ANTIBIOTICS” (priority 1996, published 2002).
# Columns and labels:
# [1] = tested on: microorganisms with acquired resistance; experiment: microbe, parasite or virus in culture; format: cell-based
# [2] = tested on: vancomycin / teicoplanin resistant enterococci; experiment: microbe, parasite or virus in culture; format: cell-based; conditions: for Vancomycin MIC + Peptide: in combination with the labelled peptide; for Peptide MIC + Vancomycin: in combination with vancomycin
sequence,measurement,setting,value
KWKSFIKKLTSAAKKVVTTAKPLISS [MBI 26],Peptide MIC Alone,"[1]; S. maltophilia 34, Ciprofloxacin section",>32 mg/L
same,Ciprofloxacin MIC + Peptide,[1]; S. maltophilia 35,0.5 mg/L
same,Peptide MIC + Ciprofloxacin,[1]; S. maltophilia 35,16 mg/L
same,Peptide MIC + Piperacillin,[1]; S. maltophilia 35,16 mg/L
same,Piperacillin MIC + Peptide,[1]; S. maltophilia 35,4 mg/L
same,Peptide MIC Alone,"[1]; S. maltophilia 35, Ciprofloxacin section",>32 mg/L
same,Peptide MIC Alone,"[1]; S. maltophilia 35, Piperacillin section",>32 mg/L
same,Peptide MIC + Piperacillin,[1]; S. maltophilia 41,32 mg/L
same,Piperacillin MIC + Peptide,[1]; S. maltophilia 41,16 mg/L
same,Peptide MIC Alone,"[1]; S. maltophilia 41, Piperacillin section",>32 mg/L
same,Gentamicin MIC + Peptide,[1]; S. maltophilia SMA017,1 mg/L
same,Peptide MIC + Gentamicin,[1]; S. maltophilia SMA017,8 mg/L
same,Peptide MIC Alone,"[1]; S. maltophilia SMA017, Gentamicin section",16 mg/L
same,Gentamicin MIC + Peptide,[1]; S. maltophilia SMA019,2 mg/L
same,Peptide MIC + Gentamicin,[1]; S. maltophilia SMA019,2 mg/L
same,Peptide MIC Alone,"[1]; S. maltophilia SMA019, Gentamicin section",4 mg/L
same,Peptide MIC + Tobramycin,[1]; S. maltophilia SMA027,64 mg/L
same,Tobramycin MIC + Peptide,[1]; S. maltophilia SMA027,4 mg/L
same,Peptide MIC Alone,"[1]; S. maltophilia SMA027, Tobramycin section",>128 mg/L
same,Peptide MIC,"[1]; S. maltophilia, combination with Piperacillin, in µg/mL",32
same,Peptide MIC + Piperacillin,[1]; S. marcescens 1,16 mg/L
same,Piperacillin MIC + Peptide,[1]; S. marcescens 1,2 mg/L
same,Peptide MIC Alone,"[1]; S. marcescens 1, Piperacillin section",>128 mg/L
same,FIC,"[1]; peptide + Ceftriaxone, A. baumannii ABI005",0.53
same,FIC,"[1]; peptide + Ceftriaxone, A. baumannii ABI006",0.56
same,FIC,"[1]; peptide + Ceftriaxone, B. cepacia BC003",0.50
same,FIC,"[1]; peptide + Ceftriaxone, E. cloacae ECL015",0.19
same,FIC,"[1]; peptide + Ciprofloxacin, A. calcoaceticus 5",0.38
same,FIC,"[1]; peptide + Ciprofloxacin, E. cloacae 16",0.38
same,FIC,"[1]; peptide + Ciprofloxacin, E. cloacae 17",0.38
same,FIC,"[1]; peptide + Ciprofloxacin, P. aeruginosa 30",0.09
same,FIC,"[1]; peptide + Ciprofloxacin, P. aeruginosa 31",0.27
same,FIC,"[1]; peptide + Ciprofloxacin, P. aeruginosa PA41",0.50
same,FIC,"[1]; peptide + Ciprofloxacin, P. aeruginosa PA77",0.56
same,FIC,"[1]; peptide + Ciprofloxacin, S. maltophilia 34",0.25
same,FIC,"[1]; peptide + Ciprofloxacin, S. maltophilia 35",0.50
same,FIC,"[1]; peptide + Gentamicin, A. baumannii ABI001",0.56
same,FIC,"[1]; peptide + Gentamicin, A. baumannii ABI002",0.53
same,FIC,"[1]; peptide + Gentamicin, P. aeruginosa PA023",0.75
same,FIC,"[1]; peptide + Gentamicin, P. aeruginosa PA041",0.75
same,FIC,"[1]; peptide + Gentamicin, S. maltophilia SMA017",0.52
same,FIC,"[1]; peptide + Gentamicin, S. maltophilia SMA019",0.53
same,FIC,"[1]; peptide + Piperacillin, A. calcoaceticus 2",0.50
same,FIC,"[1]; peptide + Piperacillin, A. calcoaceticus 7",0.25
same,FIC,"[1]; peptide + Piperacillin, E. cloacae 13",0.16
same,FIC,"[1]; peptide + Piperacillin, E. cloacae 19",0.31
same,FIC,"[1]; peptide + Piperacillin, H. influenzae 1",0.19
same,FIC,"[1]; peptide + Piperacillin, H. influenzae 2",0.19
same,FIC,"[1]; peptide + Piperacillin, P. aeruginosa 7",0.25
same,FIC,"[1]; peptide + Piperacillin, P. aeruginosa 23",0.27
same,FIC,"[1]; peptide + Piperacillin, P. aeruginosa 26",0.56
same,FIC,"[1]; peptide + Piperacillin, S. maltophilia 2",0.75
same,FIC,"[1]; peptide + Piperacillin, S. maltophilia 4",0.63
same,FIC,"[1]; peptide + Piperacillin, S. maltophilia 35",0.26
same,FIC,"[1]; peptide + Piperacillin, S. maltophilia 41",0.52
same,FIC,"[1]; peptide + Piperacillin, S. marcescens 1",0.09
same,FIC,"[1]; peptide + Tobramycin, P. aeruginosa PA031",0.75
same,FIC,"[1]; peptide + Tobramycin, S. epidermidis SE068",0.27
same,FIC,"[1]; peptide + Tobramycin, S. epidermidis SE071",0.50
same,FIC,"[1]; peptide + Tobramycin, S. maltophilia SMA027",0.50
same,Peptide MIC Alone,[2]; E. faecalis EFS005,>128 mg/L
same,Peptide MIC Alone,[2]; E. faecalis EFS010,4 mg/L
same,Peptide MIC Alone,[2]; E. faecalis EFS011,>128 mg/L
same,MBI 26 Alone (MIC),[2]; E. faecalis VanA strains,64 mg/L
same,MBI 26 + Teicoplanin (MIC),"[2]; E. faecalis VanA strains, in combination with teicoplanin",8 mg/L
same,Amikacin MIC + Peptide,[2]; E. faecium EFM004,8 mg/L
same,Peptide MIC + Amikacin,[2]; E. faecium EFM004,32 mg/L
same,Peptide MIC Alone,[2]; E. faecium EFM004,64 mg/L
same,Peptide MIC Alone,"[2]; E. faecium EFM004, Amikacin section",64 mg/L
same,Peptide MIC Alone,[2]; E. faecium EFM010,32 mg/L
same,Peptide MIC Alone,[2]; E. faecium EFM011,32 mg/L
same,Amikacin MIC + Peptide,[2]; E. faecium EFM020,8 mg/L
same,Peptide MIC + Amikacin,[2]; E. faecium EFM020,32 mg/L
same,Peptide MIC Alone,"[2]; E. faecium EFM020, Amikacin section",64 mg/L
same,FIC,"[2]; Vancomycin + peptide, E. faecalis EFS005",0.31
same,FIC,"[2]; Vancomycin + peptide, E. faecalis EFS010",0.27
same,FIC,"[2]; Vancomycin + peptide, E. faecalis EFS011",0.25
same,FIC,"[2]; Vancomycin + peptide, E. faecium EFM004",0.25
same,FIC,"[2]; Vancomycin + peptide, E. faecium EFM010",0.53
same,FIC,"[2]; Vancomycin + peptide, E. faecium EFM011",0.31
same,Vancomycin MIC + Peptide,[2]; E. faecalis EFS005,4 mg/L
same,Vancomycin MIC + Peptide,[2]; E. faecalis EFS010,1 mg/L
same,Vancomycin MIC + Peptide,[2]; E. faecalis EFS011,2 mg/L
same,Vancomycin MIC + Peptide,[2]; E. faecium EFM004,0.125 mg/L
same,Vancomycin MIC + Peptide,[2]; E. faecium EFM010,1 mg/L
same,Vancomycin MIC + Peptide,[2]; E. faecium EFM011,2 mg/L
same,Peptide MIC + Vancomycin,[2]; E. faecalis EFS005,16 mg/L
same,Peptide MIC + Vancomycin,[2]; E. faecalis EFS010,1 mg/L
same,Peptide MIC + Vancomycin,[2]; E. faecalis EFS011,32 mg/L
same,Peptide MIC + Vancomycin,[2]; E. faecium EFM004,16 mg/L
same,Peptide MIC + Vancomycin,[2]; E. faecium EFM010,16 mg/L
same,Peptide MIC + Vancomycin,[2]; E. faecium EFM011,8 mg/L
same,FIC,"[2]; peptide + Amikacin, E. faecium EFM004",0.56
same,FIC,"[2]; peptide + Amikacin, E. faecium EFM020",0.75
same,susceptibility of teicoplanin resistant enterococci to teicoplanin,[2]; teicoplanin in combination with peptide,become susceptible to teicoplanin
same,susceptibility of vancomycin resistant enterococci (VRE) to vancomycin,[2]; vancomycin in combination with peptide,become susceptible to vancomycin
